According to patent US5786344A, “Camptothecin drug combinations and methods with reduced side effects” (priority 1995, dated 1998):
Where “and” joins values, the source holds several entries; their conditions need not be identical. Equal values may be shown once. Entries after “also recorded” stand apart in the source; their conditions may differ.

Legend:
[1] = rats, cited from earlier work
[2] = Phase I pharmacokinetics of CPT-11, SN-38 and SN-38G in plasma/urine after 90 min iv infusion; details: for "Biliary ratio" (median): AUC SN-38/SN-38G
Method: All patients met the standard laboratory criteria including criteria for adequate organ function. Informed, written consent was obtained from all patients prior to their first dose of CPT-11. The drug was given in 500 cc normal saline by intravenous infusion over 90 minutes on a weekly basis for four doses in a sixweek cycle. […] A second cycle was given with the same dose and schedule used during cycle 1. […] Patients who experienced dose limiting neutropenia were eligible to receive G-CSF at 5 μg/kg/day according to the criteria defined below.
To determine drug and metabolite levels, heparinized blood samples obtained on the first cycle of therapy, were centrifuged and the plasma was stored at -70° C. until analysis. CPT (camptothecin, 1 μg/ml, obtained from the National Cancer Institute, Bethesda, Md.) was used as an internal standard. One hundred μl of plasma was extracted with 2 ml of methanol, centrifuged at 2500×g for 10 min and the supernatant was evaporated to dryness. Reconstitution was done with 200 μl of methanol containing 0.1% 10M HCL (pH~2.0). For the estimation of SN-38G, plasma samples were extracted as described above. Prior to reconstitution, the samples were incubated with 1000 U of glucuronidase (Sigma Chemical Co., St. Louis, Mo.) for 2 hours at 37° C.
Analysis was done using a C18 column (μBondapak, 10 μm, 3.9×300 mm; Waters Associates, Milford, Mass.) preceded by a Novapak C18 guard column. […] Detection was monitored by a Hitachi F1050 Fluorescence detector (Hitachi Instruments Inc., Naperville, Ill.) with a λex at 375 nm and λem at 566 nm. […] SN-38G concentrations were determined as the increase in SN-38 concentrations following incubation with glucuronidase.
The plasma concentration-time data of CPT-11, SN-38 and SN-38G were analyzed by non-compartmental analysis using PCNONLIN (SCI, Lexington, Ky.). The area under the plasma concentration-time curve (AUC) from time zero (predose) to the time of the last quantifiable concentration (AUCt) was calculated by the trapezoidal rule. The AUC extrapolated to time infinity (AUCt →.infin.) was estimated by dividing the last quantifiable concentration by the terminal rate constant obtained by the log-linear regression of the terminal elimination phase. The AUC was the summation of AUCt and AUCt→.infin.. Clearance (CL) was estimated as the ratio of the dose and AUC.
The present study employed this principle to obtain an estimate of SN-38 excreted in the bile. Since glucuronidation is the major pathway of elimination of SN-38, the fraction of SN-38 not conjugated would be primarily excreted in the bile. The net biliary concentration of SN-38 would then be a resultant of its formation and elimination. This concentration was expressed as the "biliary ratio" which was the ratio of AUC of SN-38 to SN-38G. To control for individual variability in the amount of available drug, the ratio was multiplied by the AUC of CPT-11 to obtain a "biliary index" of SN-38.
The nonparametric Mann-Whitney test was employed to test for differences in pharmacokinetic outcomes between two patient groups, defined by the worst severity of diarrhea experienced in the first two cycles of CPT-11 treatment. Statistical tests were performed in the Number Cruncher Statistical System (Dr. Jerry Hintz, Kaysville, Utah). A two-sided significance level of less than or equal to 0.05 was considered statistically significant.

p-glycoprotein = target: T1, p-glycoprotein (Homo sapiens, UniProt P08183); experiment: in vitro; type: binding
T1 construct: membrane vesicles from the multidrug resistant breast tumor cell line; endogenous in cells; host or cells: MCF-7/Adr (multidrug resistant human breast cancer cell line), membrane vesicles
T1 sequence (P08183 whole entry): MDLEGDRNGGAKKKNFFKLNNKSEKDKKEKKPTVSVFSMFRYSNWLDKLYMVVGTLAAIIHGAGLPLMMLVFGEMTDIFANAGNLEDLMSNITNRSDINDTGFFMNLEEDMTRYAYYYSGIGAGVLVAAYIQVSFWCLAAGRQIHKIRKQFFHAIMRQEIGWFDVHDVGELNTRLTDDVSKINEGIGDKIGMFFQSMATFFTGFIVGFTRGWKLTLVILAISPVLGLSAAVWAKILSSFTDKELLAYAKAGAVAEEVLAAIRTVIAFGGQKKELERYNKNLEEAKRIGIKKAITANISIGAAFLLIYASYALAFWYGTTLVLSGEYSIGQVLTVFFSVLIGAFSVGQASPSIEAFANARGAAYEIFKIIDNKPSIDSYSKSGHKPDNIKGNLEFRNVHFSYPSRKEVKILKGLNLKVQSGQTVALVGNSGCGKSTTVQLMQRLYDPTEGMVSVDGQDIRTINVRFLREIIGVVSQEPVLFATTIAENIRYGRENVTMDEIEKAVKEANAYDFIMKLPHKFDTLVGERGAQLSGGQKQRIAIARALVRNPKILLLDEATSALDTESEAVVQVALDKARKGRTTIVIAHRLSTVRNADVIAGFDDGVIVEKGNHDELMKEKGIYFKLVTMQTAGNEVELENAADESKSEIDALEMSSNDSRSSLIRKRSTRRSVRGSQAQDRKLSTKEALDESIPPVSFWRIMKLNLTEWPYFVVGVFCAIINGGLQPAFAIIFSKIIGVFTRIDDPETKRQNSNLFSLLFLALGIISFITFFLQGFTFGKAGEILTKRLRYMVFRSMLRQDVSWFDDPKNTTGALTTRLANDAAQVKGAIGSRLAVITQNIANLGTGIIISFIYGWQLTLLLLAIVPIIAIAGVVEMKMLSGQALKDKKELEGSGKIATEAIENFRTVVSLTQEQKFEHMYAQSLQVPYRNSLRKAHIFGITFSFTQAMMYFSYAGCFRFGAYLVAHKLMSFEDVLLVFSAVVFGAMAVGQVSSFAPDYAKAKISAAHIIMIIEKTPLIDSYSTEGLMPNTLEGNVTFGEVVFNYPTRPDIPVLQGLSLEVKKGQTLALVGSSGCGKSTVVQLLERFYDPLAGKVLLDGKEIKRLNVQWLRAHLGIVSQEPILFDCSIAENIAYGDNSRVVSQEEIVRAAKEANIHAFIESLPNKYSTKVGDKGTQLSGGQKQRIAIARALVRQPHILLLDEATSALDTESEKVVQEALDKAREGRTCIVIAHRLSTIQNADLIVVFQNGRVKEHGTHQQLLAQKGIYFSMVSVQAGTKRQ
Description: FIG. 5. […]. Membrane vesicles from the multidrug resistant human breast cancer tumor cell line […] were used. […].

[3] = Phase I toxicity evaluation (CALGB expanded toxicity criteria); type: in vivo, human
Method: […]. The detailed examples presented in the present application reflect treatment on 21 patients.
Significant gastrointestinal toxicity was first manifested at the second dose level (120 mg/m2). […] […]. […] Two of these cases were found at exploratory laparotomy to be due to progression of disease and one resolved after conservative therapy, but was likely due to progression of disease. […] In a few patients, however, high doses of ondansetron were required to achieve relief.
Toxicity assessment was done according to the CALGB expanded toxicity criteria. Patients who experienced>grade 2 diarrhea at any time while on study were begun on loperamide 4 mg p.o. followed by 2 mg p.o. after every stool up to a total dose of 16 mg/day. If loperamide was unsuccessful in controlling diarrhea, patients were begun on octreotide acetate 100-600 μg for 2-3 doses per day. Stool collections were also obtained to test for any co-existing infection. […]

tumors = details: preclinical and clinical tumors; cited from earlier work
[4] = cited from earlier work
[5] = human, in vivo; cited from earlier work

CCc1c2c(nc3ccc(OC(=O)N4CCC(N5CCCCC5)CC4)cc13)-c1cc3c(c(=O)n1C2)COC(=O)[C@]3(O)CC [CPT-11, 7-ethyl-10-[4-(1-piperidino)-1-piperidino)carbonyloxycamptot hecin]
biliary radioactivity excreted over 24 h as ([1]; 24 h): 55% | biliary radioactivity reabsorbed from the intestine [1]: approximately 18% | "biliary index" (median) ([2]; 145 mg/m2, Grade 0-2 diarrhea, p=0.03): 2275 and 2276 | "biliary index" (median) ([2]; 145 mg/m2, Grade 3-4 diarrhea, p=0.03): 4747 | "Biliary ratio" (median) ([2]; 145 mg/m^2, Grade 0-2 diarrhea, n = 5): 0.27 | "biliary index" (median) ([2]; 145 mg/m^2, Grade 0-2 diarrhea, n = 5, p 0.03): 2276 ng·h/mL | "Biliary ratio" (median) ([2]; 145 mg/m^2, Grade 3-4 diarrhea, n = 5): 0.53 | "biliary index" (median) ([2]; 145 mg/m^2, Grade 3-4 diarrhea, n = 5, p 0.03): 4747 ng·h/mL | "biliary index" ([2]; 4 of 5 patients with grade 3-4 diarrhea, 145 mg/m^2): above 4000 | effect of pretreatment with G-CSF on pharmacokinetics ([2]; CPT-11 and its metabolites): no effect | "biliary index" (median) ([2]; all dose levels, grade 0-2 diarrhea, n=12, p=0.0004): 2228 | "biliary index" (median) ([2]; all dose levels, grade 3-4 diarrhea, n=9, p=0.0004): 5499 | increase of AUC from 100 to 175 mg/m^2 ([2]; in vivo): 2.6 fold | interpatient variability of AUC (percent coefficient of variation) ([2]; in vivo): 17-57% | patients with grade 3-4 diarrhea having index estimates above 4000 ([2]; in vivo): about 90% | "biliary index" ([2]; one patient, grade 3-4 diarrhea, c diff+): 3028 | substrate of p-glycoprotein (p-glycoprotein): substrates of p-glycoprotein | inhibition at 10 µM (p-glycoprotein; human, mcf-7/adr membrane vesicles): 80% | myelosuppression ([3]; 100 mg/m2): not a significant toxicity | diarrhea ([3]; 100 mg/m^2): No diarrhea was observed | myelosuppression ([3]; 120 mg/m2): dose-limiting in one patient | patients developing grade 3-4 diarrhea ([3]; 120 mg/m^2): 34% | myelosuppression ([3]; 145 mg/m2, ameliorated by prophylactic G-CSF): dose-limiting in two patients | neutropenia >grade 1 ([3]; 145 mg/m2 with G-CSF): No cases | patients developing grade 3-4 diarrhea ([3]; 145 mg/m^2): 50% | neutropenic fevers ([3]; 175 mg/m2, first two patients, despite prophylactic G-CSF): hospitalized with neutropenic fevers | patients developing grade 3-4 diarrhea ([3]; 175 mg/m^2): 100% | major toxicities ([3]; 100-175 mg/m2): myelosuppression, diarrhea, and abdominal cramping pain | abdominal cramping ([3]; Patients 4 (120 mg/m2), 21 and 15 (145 mg/m2)): grade 3 abdominal cramping | neutropenic fevers ([3]; Patients 13 and 16, 145 mg/m2, cycle 1): hospitalized with neutropenic fevers | small bowel obstructions ([3]; likely due to progression of disease): Three patients developed small bowel obstructions | nausea and vomiting ([3]; majority of patients, doses >120 mg/m2): grade 1-2 nausea and vomiting | abdominal cramps ([3]; other patients): Four other patients had mild (grade 1) abdominal cramps | antitumor activity (tumors): significant activity in a broad spectrum of in vitro and in vivo tumor models; also recorded: antitumor activity in phase II trials | route of excretion ([4]; animal studies): equally excreted into bile and urine | dose eliminated in the urine ([4]; rats, % of CPT-11 dose): about 20% | DLT in Phase I studies in Japan and Europe/US [5]: either myelosuppression or diarrhea
